Laboratory results reported in the NIST ThermoML archive (doi:10.1016/j.jct.2007.10.002).

Assays:
[1] = xn = mol fraction of the nth substance listed; conditions: 298.15 K, 101 kPa, Liquid; for viscosity: Capillary tube (Ostwald / Ubbelohde) method; for mass density: Vibrating tube method
[2] = refractive index (Na D-line) (dimensionless); xn = mol fraction of the nth substance listed; conditions: 298.15 K, 101 kPa, Liquid, Standard Abbe refractometry
[3] = 298.15 K, 101 kPa, Liquid; for viscosity: Capillary tube (Ostwald / Ubbelohde) method; for mass density: Vibrating tube method
[4] = refractive index (Na D-line) (dimensionless); conditions: 298.15 K; 101.33 kPa; Liquid; Standard Abbe refractometry

CCCCn1cc[n+](C)c1C.F[B-](F)(F)F [1-butyl-2,3-dimethylimidazolium tetrafluoroborate] + O
Conditions	mass density, [1] [kg/m3]	refractive index, [2]	viscosity, [1] [mPa·s]
x1 = 0.0085	1012.56	–	1.06
x1 = 0.0397	1053.33	1.362	1.83
x1 = 0.1068	1100.33	1.387	3.96
x1 = 0.1997	1132.18	1.404	7.34
x1 = 0.2577	1144.22	1.411	10.07
x1 = 0.3222	1154.04	1.417	12.62
x1 = 0.4983	–	1.423	–
x1 = 0.7058	1182.14	1.429	94.63
x1 = 0.7325	1183.22	1.43	104.97
x1 = 0.8659	1187.78	1.432	214.82
x1 = 1	1191.2	1.433	455.81

CCCCn1cc[n+](C)c1.F[B-](F)(F)F [1-butyl-3-methylimidazolium tetrafluoroborate] + O
Conditions	mass density, [1] [kg/m3]	refractive index, [2]	viscosity, [1] [mPa·s]
x1 = 0.036	1050.07	–	1.51
x1 = 0.044	1058.55	1.36	1.67
x1 = 0.1267	1112.51	1.384	3.22
x1 = 0.3134	1158.59	1.405	7.2
x1 = 0.4984	1177.85	1.412	13.63
x1 = 0.5802	1183.49	1.415	19.25
x1 = 0.7488	–	1.418	–
x1 = 0.8089	1194.47	1.419	46.55
x1 = 0.9719	1199.54	1.421	88.87
x1 = 1	1200.3	1.422	100.66

O [water] + CCCCn1cc[n+](C)c1.F[B-](F)(F)F
x2 = 0
Conditions	refractive index	viscosity [mPa·s]
[1]	–	0.89
[2]	1.333	–

CCCCn1cc[n+](C)c1.F[B-](F)(F)F [1-butyl-3-methylimidazolium tetrafluoroborate]
Conditions	mass density [kg/m3]	refractive index	viscosity [mPa·s]
[3]	1200.3	–	100.66
[4]	–	1.422	–

O [water] + CCCCn1cc[n+](C)c1C.F[B-](F)(F)F
x2 = 0
Conditions	refractive index	viscosity [mPa·s]
[1]	–	0.89
[2]	1.333	–

CCCCn1cc[n+](C)c1C.F[B-](F)(F)F [1-butyl-2,3-dimethylimidazolium tetrafluoroborate]
Conditions	mass density [kg/m3]	refractive index	viscosity [mPa·s]
[3]	1191.2	–	455.81
[4]	–	1.433	–
